*1 amine or outer side, *2 acyl side, *3 side chain or, on linkers, in order; H or OH if unused. Where a SMILES comes first, the peptide text is derived from it. [ ]: non-standard residue; d: D form. The star is where a group is joined. Dolaproine = CO[C@@H]([C@@H]1CCCN1)[C@@H](C)C(=O)O; Phenylenediamine(1,4) = c1cc(N[*:2])ccc1N[*:1]; Dil = CC[C@H](C)[C@H](NC)[C@@H](CC(=O)O)OC; NMe2Val = CC(C)[C@@H](C(=O)*)N(C)C; X1 = C[C@@H](N*)[C@@H](O)c1ccccc1; NMeV = CN[C@H](C(=O)O)C(C)C
System: H3396 human breast carcinoma cells (cBR96 antigen positive, cAC10 antigen negative)
Assay: In vitro cytotoxicity, Alamar Blue assay, H3396 cells
Assay type: cell-based
Conditions: exposure for 1 hour
Text: The cell lines used were H3396 human breast carcinoma (cBR96 antigen positive, cAC10 antigen negative), HCT-116 human colorectal carcinoma (cBR96 and cAC10 antigen negative), and Karpas human anaplastic large cell lymphoma (ALCL) (cBR96 antigen negative, cAC10 antigen positive). These cell lines are available from ATCC. CD30-positive Hodgkin's Disease (HD) cell line L540 and the ALCL cell line Karpas 299 were obtained from the Deutsche Sammlung von Mikroorganism and Zellkulturen GmbH (Braunschweig, Germany). L540cy, a derivative of the HD line L540 adapted to xenograft growth, was provided by Dr. Phil Thorpe (U of Texas Southwestern Medical Center, Dallas, Tex.). Cell lines were grown in RPMI-1640 media (Life Technologies Inc., Gaithersburg, Md.) supplemented with 10% fetal bovine serum.H3396 cells in RPMI containing 10% fetal bovine serum (referred to as medium) were plated in 96-well plates at approximately 3,000-10,000 cells/well and allowed to adhere overnight. The non-adherent Karpas cell line was plated out at approximately 10,000 cells/well at the initiation of the assay. Various concentrations of illustrative Compounds of the Invention in medium were added in triplicate, and after the times indicated IN FIGS. 1-7, the medium was removed, and the cells were washed with fresh medium three times. After a 96 hour incubation period at 37° C., Alamar Blue was added and cell viability was determined 4 hours later as described by Ahmed S A, Gogal R M Jr, Walsh J E., J. Immunol. Methods, 170, 211-224, 1994.

[1] = concentrations between 0.01 mM and 1.0 mM

SMILES | cytotoxicity (FIG. 1) [1] | cytotoxicity (FIG. 1) (concentrations of up to 0.01 mM)
CC[C@H](C)[C@@H]([C@@H](CC(=O)N1CCC[C@H]1[C@H](OC)[C@@H](C)C(=O)N[C@H](C)[C@@H](O)c1ccccc1)OC)N(C)C(=O)[C@@H](NC(=O)[C@@H](NC)C(C)C)C(C)C [Compound 49] (H-[NMeV]V[Dil][Dolaproine]-X1) | substantially equal cytotoxicity | –
CC[C@H](C)[C@@H]([C@@H](CC(=O)N1CCC[C@H]1[C@H](OC)[C@@H](C)C(=O)N[C@@H](Cc1ccccc1)C(=O)Nc1ccc(N)cc1)OC)N(C)C(=O)[C@@H](NC(=O)[C@H](C(C)C)N(C)C)C(C)C [Compound 53] (NMe2Val-V[Dil][Dolaproine]F-{Phenylenediamine(1,4)}) | substantially equal cytotoxicity | more cytotoxic than Compound 49

Source: patent US7851437B2, “Drug conjugates and their use for treating cancer, an autoimmune disease or an infectious disease” (Seattle Genetics Inc., priority 2002, dated 2010)
